Measured values as given in ChEMBL document CHEMBL3044837, “Synthesis and pharmacological investigation of novel 2-substituted-3-carboxamido-4H-pyrimidobenzothiazole derivatives as a new class of H1-antihistaminic agent” (Med Chem Res, 2013).

What follows are compounds tested on Mus musculus (assay: Sedative activity in Mus musculus Swiss albino (mouse) at 10 mg/kg, ip after 1 hr relative to control). Details: in vivo.
Format: organism-based
Set-up: dose 10 mg/kg, route intraperitoneal

Structure (SMILES) | Activity
NC(=O)c1c(N2CCN(CCO)CC2)nc2sc3ccccc3n2c1=O | 36.47%
NC(=O)c1c(N2CCCCC2)nc2sc3ccccc3n2c1=O | 23.61%
CN1CCN(c2nc3sc4cc(Cl)ccc4n3c(=O)c2C(N)=O)CC1 | 32.92%
NC(=O)c1c(N2CCOCC2)nc2sc3cc(Cl)ccc3n2c1=O | 23.17%
CCN1CCN(c2nc3sc4cc(Cl)ccc4n3c(=O)c2C(N)=O)CC1 | 22.66%
CN(C)CCNc1nc2sc3cc(Cl)ccc3n2c(=O)c1C(N)=O | 25.97%
NC(=O)c1c(N2CCCC2)nc2sc3cc(Cl)ccc3n2c1=O | 38.27%
NC(=O)c1c(N2CCOCC2)nc2sc3ccccc3n2c1=O | 24.32%
CN1CCN(c2nc3sc4ccccc4n3c(=O)c2C(N)=O)CC1 | 35.21%
NC(=O)c1c(N2CCCCC2)nc2sc3cc(Cl)ccc3n2c1=O | 20.51%
NC(=O)c1c(N2CCCC2)nc2sc3ccccc3n2c1=O | 33.33%
CCN1CCN(c2nc3sc4ccccc4n3c(=O)c2C(N)=O)CC1 | 26.43%
CN(C)CCC(c1ccc(Cl)cc1)c1ccccn1.O=C(O)/C=C\C(=O)O (stereo not given) [CHLORPHENIRAMINE MALEATE] | 69.01%
CN(C)CCNc1nc2sc3ccccc3n2c(=O)c1C(N)=O | 36.25%
NC(=O)c1c(N2CCN(CCO)CC2)nc2sc3cc(Cl)ccc3n2c1=O | 30.37%
